Data published in patent US12295997B2, “Prostate neoantigens and their uses” (Janssen Biotech, Inc., priority 2020, dated 2025).

What was measured:
HLA-A*03:01 = HLA-A*03:01 (Homo sapiens, UniProt P04439); assay: In vitro binding of neoantigens to class I MHC (UV peptide exchange, HLA class I ELISA); settings: 100% = same binding as positive control peptide
Protocol: The 9 mer peptides identified by bioinformatics analysis were analyzed for their binding propensities to 6 common HLA class I alleles (HLA-A*01:01, A*02:01, A*03:01, A*24:02, B*07:02, B*08:01). The principle of the method is briefly described below and consists of two parts, one involving exchange of peptide with a positive control induced by Ultraviolet (UV) radiation, and the second is an enzyme immunoassay to detect stable HLA-peptide and empty HLA complexes.
HLA-bound peptides are critical for the stability of the HLA complex. A conditional HLA class I complex was stabilized by an UV-labile peptide utilizing a different peptide (Pos) for each HLA (Pos: HLA-A*01:01: […](SEQ ID NO: 409), HLA-A*02:01: […] (SEQ ID NO: 410), HLA-A*03:01: […] (SEQ ID NO: 411), HLA-A*24:02: […] (SEQ ID NO: 412), HLA-B*07:02: […] (SEQ ID NO: 413), HLA-B*08:01: […] (SEQ ID NO: 414), which could be cleaved by UV irradiation when bound to the HLA molecule. Upon cleavage, the resulting peptide fragments dissociated from the HLA class I complex since their length was insufficient to bind stably to HLA. Under the conditions in which peptide cleavage was performed (neutral pH, on melting ice), the peptide-free HLA complex remained stable.
The exchange efficiency between the peptide of interest and Pos was analyzed using an HLA class I ELISA. The combined technologies allowed the identification of ligands for an HLA molecule of interest which are potentially immunogenic.
Exchange control peptide Pos was a high affinity binder to the relevant HLA class I allele while exchange control peptide Neg was a non-binder. The UV control represented UV-irradiation of conditional HLA class I complex in the absence of a rescue peptide.
The HLA class I ELISA is an enzyme immunoassay based on the detection of beta2-microglobulin (B2M) of (peptide-stabilized) HLA class I complexes. To this end streptavidin was bound onto polystyrene microtiter wells. After washing and blocking, HLA complex present in exchange reaction mixtures or ELISA controls was captured by the streptavidin on the microtiter plate via its biotinylated heavy chain. Non-bound material was removed by washing. Subsequently, horseradish peroxidase (HRP)-conjugated antibody to human B2M was added. The HRP-conjugated antibody binds only to an intact HLA complex present in the microtiter well because unsuccessful peptide exchange results in disintegration of the original UV-sensitive HLA complex upon UV illumination. In the latter case B2M was removed during the washing step. After removal of non-bound HRP conjugate by washing, a substrate solution was added to the wells. A coloured product formed in proportion to the amount of intact HLA complex present in the samples. After the reaction was terminated by the addition of a stop solution, absorbance was measured in a microtiter plate reader. The absorbance was normalized to the absorbance of an exchange control peptide (represents 100%). Suboptimal HLA binding of peptides with a moderate to low affinity for HLA class I molecules can also be detected by this ELISA technique (Rodenko, B et al. (2006) Nature Protocols 1: 1120-32).
Peptides that had 10% or greater exchange efficiency in one of the 6 HLA alleles were considered for further immunogenicity testing and analysis.
Binding of select neoepitopes to HLA-A*01:01, HLA-A*02:01, HLA-A*03:01, HLAA*24:02, HLAAB*07:02 and HLA-B*08:01 was evaluated using the assay described in Example 1. […] As a criterion for further evaluation, peptides with an exchange rate of at least 10% with the corresponding Pos peptide for at least one of the 6 HLA alleles that we considered for further evaluation. The exchange rates with the allele specific Pos peptides, of the 24 neoantigens so identified are summarized below in Table 17. Higher percentages correspond to stronger binding to the HLA allele.

[1] = test system: CD8+ T cells in PBMCs from human patients with metastatic castrate-resistant prostate cancer; assay: Patient PBMC restimulation assay (in vitro immunogenicity, TNFα/IFNγ intracellular flow cytometry); type: cell-based; settings: 9-mer peptide; for Maximum fold change over negative control: TNFα+IFNγ+CD8+ T cells, highest across PBMC donors evaluated; for Maximum frequency of TNFα^+IFNγ^+CD8^+ T cells (Percent): greatest frequency among all tested PBMC donors; for Immunogenic: patient PBMC restimulation
Protocol: PBMCs from human patients with metastatic castrate-resistant prostate cancer were thawed using media (RPMI 1640 supplemented with Glutamax, 10% HI FBS, and 1× Sodium Pyruvate). Cells were counted and plated in a 96 well round bottom microplate at a concentration of 250,000 viable cells per well. Lyophilized peptides were solubilized in 100% DMSO and diluted in media to 10 μg/mL. Neoantigen peptides were added in equal volume to PBMCs for a final concentration of 5 μg/mL. CEF Peptide Pool “Plus” (Cellular Technologies, Ltd.) was utilized as a positive control and DMSO at the same final concentration as the experimental peptides was utilized as a negative control. Human IL-15 (Peprotech) was added to all wells at final concentration of 10 ng/mL.
Plates were incubated at 37° C. (5% CO2) for a total of 13 days. Media was refreshed every 2 days with IL-15 (10 ng/mL final concentration) and IL-2 (R&D systems, 10 IU/mL final concentration). On day 12, PBMCs were re-stimulated with identical experimental peptides or controls, at same concentration as peptide stimulation on Day 1. After 1-hour incubation, protein Inhibitor Cocktail (eBioscience) was added to every well and plate was incubated overnight.
On day 13, cells were stained for intracellular flow cytometry analysis. The cells were washed with PBS and stained with Live/Dead Fixable Aqua Dead Cell stain (Thermo-Fisher). Following the live/dead stain, cells were blocked using Biotin-Free Fc Receptor Blocker (Accurate Chemical & Scientific Corp). Extracellular cellular flow panel ([…] per well in 50 μL) consisted of CD3 PerCP-Cy5.5 (Biolegend), CD4 BV421 (Biolegend), and CD8 APC-Cy7 (Biolegend). After extracellular staining, cells were fixed using Foxp3/fTranscription Factor Staining Buffer Set (eBioscience) and stained for intracellular proteins (1:50 dilution) using TNFα FITC (R&D Systems) and IFNγ BV785 (Biolegend). Cells were washed and resuspended in stain buffer and analyzed using a BD Celesta flow cytometer.
Flow cytometry cell staining analysis was completed using FlowJo v10. Cells were gated on live, singlet, CD3+ cells. The CD8+ T cells were analyzed for TNFα/IFNγ expression and the frequency of double positive TNFα/IFNγ CD8+ T cells was recorded. Responses were assessed to be positive when the frequency of double positive TNFα/IFNγ CD8+ T cells due to stimulation with an experimental peptide was increased greater than or equal to 2-fold over the DMSO only negative control for that patient. Peptides were analyzed in 1 to 7 patient samples.
The 9 mer fragments shown in Table 13 were assessed for their ability to activate T cells using the Patient PBMC restimulation assay described in Example 1 using TNFα and IFNγ production by CD8^+ T cells as a readout. Self-antigens shown in Table 15 were also used in the assays. […] PBMCs from ten patients were evaluated.

With “P46 (DDRNTFDIVWWCPMSRLRLALTVPPSTTTTCVTVPAWAA; listed as Homo sapiens) [Peptide P46]” the “Exchange rate with allele specific Pos peptide, HLA-A*03:01” value (shortened to “Exchange rate”) (HLA-A*03:01) was 10.3%, the “Maximum fold change over negative control” value (“Maximum fold change” below) [1] was 2.33 and the “Maximum frequency of TNFα^+IFNγ^+CD8^+ T cells (Percent)” value (“Maximum frequency … (Percent)” for short) [1] was 0.140%. The Immunogenic [1] was “Yes”.

In the case of “P56 (PKSEVRAKCKFSILNAK; listed as Homo sapiens) [Peptide P56]”, the “Exchange rate” value (HLA-A*03:01) is reported as 6.8%, the “Maximum fold change” value [1] is reported as 11.57 and the “Maximum frequency … (Percent)” value [1] is reported as 1.620%. For the same molecule, the Immunogenic [1] was “Yes”.

In the case of “P58 (MMAEIISVHVPKILSGK; listed as Homo sapiens) [Peptide P58]”, the “Exchange rate” value (HLA-A*03:01) is reported as 32.5%, the “Maximum frequency … (Percent)” value [1] is reported as 5.370% and the Immunogenic [1] is reported as “Yes”.

With “P60 (CYLRRQKRLKCEKQPGA; listed as Homo sapiens) [Peptide P60]” the “Exchange rate” value (HLA-A*03:01) was 36.6%, the “Maximum fold change” value [1] was 2.08 and the “Maximum frequency … (Percent)” value [1] was 0.340%. The Immunogenic [1] was “Yes”.

“P61 (MFENGCYLGRQKRFKCE; listed as Homo sapiens) [Peptide P61]” was tested, and the “Exchange rate” value (HLA-A*03:01) was 2.1%, the “Maximum frequency … (Percent)” value [1] was 0.084% and the Immunogenic [1] was “Yes”.

For “P73 (DSSGNLLERNSFEVRV; listed as Homo sapiens) [Peptide P73]”, the “Exchange rate” value (HLA-A*03:01) was 3.5%, the “Maximum fold change” value [1] was 2.97 and the “Maximum frequency … (Percent)” value [1] was 0.110%. For the same molecule, the Immunogenic [1] was “Yes”.

For “P97 (GYLRMQGLMAQRLLLR; listed as Homo sapiens) [Peptide P97]”, the “Exchange rate” value (HLA-A*03:01) was 39%, the “Maximum fold change” value [1] was 4.55 and the “Maximum frequency … (Percent)” value [1] was 0.160%. The Immunogenic [1] was “Yes”.

With “P98: neoantigen 9 mer fragment used for PBMC stimulation (FIG. 5D) (IVWWCPMSR; listed as Homo sapiens) [Neoantigen P98]” the “Exchange rate” value (HLA-A*03:01) was 51.1%, the “Maximum fold change” value [1] was 14.93 and the “Maximum frequency … (Percent)” value [1] was 1.000%. For the same molecule, the Immunogenic [1] was “Yes”.

In the case of “SLYHREKQLIAMDSAI (listed as Homo sapiens) [Neoantigen P22]”, the “Exchange rate” value (HLA-A*03:01) is reported as 4.8%, the “Maximum frequency … (Percent)” value [1] is reported as 0.120% and the Immunogenic [1] is reported as “Yes”.

In the case of “YEAGMTLGEKFRVGNCKHLKMTRP (listed as Homo sapiens) [Neoantigen P82]”, the “Exchange rate” value (HLA-A*03:01) is reported as 58.1%, the “Maximum fold change” value [1] is reported as 3.46 and the “Maximum frequency … (Percent)” value [1] is reported as 0.970%. For the same molecule, the Immunogenic [1] was “Yes”.

“YEAGMTLGGKILFFLFLLLPLSPFSLIF (listed as Homo sapiens) [Neoantigen P87]” was tested, and the “Exchange rate” value (HLA-A*03:01) was 2.4%, the “Maximum fold change” value [1] was 3.24 and the “Maximum frequency … (Percent)” value [1] was 0.120%. The Immunogenic [1] was “Yes”.

B1: P19 (peptide, listed as Homo sapiens)
chain: WTPIPVLTRWPLPHPPPWRRATSCRMARSSPSATSGSSVRRRCSSLPSWVWNLAASTRPRSTPS
For B1, the “Exchange rate” value (HLA-A*03:01) was 4.1%, the “Maximum fold change” value [1] was 5.00 and the “Maximum frequency … (Percent)” value [1] was 0.480%. The Immunogenic [1] was “Yes”.
